What was measured:
[1] = system: NHDF; experiment: Cytotoxicity MTS assay, 72 h; type: cell-based; conditions: Homo sapiens, NHDF normal fibroblasts
From the text: (§1) The human colon carcinoma cell line HCT116 wild type (p53^+/+), human breast carcinoma cell line MCF-7 and glioblastoma cell line Hs683 were obtained from ATCC. The glioma cell line U-251 was purchased from Sigma Aldrich and the normal human fibroblast cell lines NHDF from PromoCell. The human colon cancer cell line HCT116 with a p53 deletion (p53^-/-) was kindly provided by Prof. M. Rusin from the Maria Sklodowska-Curie Memorial Cancer Centre and Institute of Oncology in Gliwice, Poland. Cells were grown as monolayer cultures in Dulbecco’s modified Eagle’s medium with an antibiotic gentamicin (200 μL/100 mL medium) in 75 cm^2 flasks (Nunc). DMEM for HCT116, MCF-7, U-251, Hs683 were supplemented with 12% heat-inactivated fetal bovine serum (Sigma) and for NHDF with 15% non-inactivated fetal bovine serum (Sigma). All the cell lines were cultured under standard conditions at 37°C in a humidified atmosphere at 5% CO2.
(§2) The cells were seeded in 96-well plates (Nunc) at a density of 5,000 cells/well (HCT116, MCF-7, U-251, Hs683) and 4,000 cells/well (NHDF) and incubated at 37°C for 24 h. The assay was performed following a 72 h incubation with varying concentrations of the compounds that were tested. Then, 20 μL of The CellTiter 96®AQueous One Solution-MTS (Promega) solution was added to each well (with 100 μL DMEM without phenol red) and incubated for 1 h at 37°C. The optical densities of the samples were analyzed at 490 nm using a multi-plate reader (Synergy 4, Bio Tek). Results were expressed as a percentage of the control and calculated as the inhibitory concentration (IC50) values using GraphPad Prism 5. The IC50 parameter was defined as the compound concentration that was necessary to reduce the proliferation of cells to 50% of the untreated control. Each individual compound was tested in triplicate in a single experiment with each experiment being repeated four to five times.

[2] = system: HCT116 p53^+/+; experiment: Cytotoxicity MTS assay, 72 h; type: cell-based, human; conditions: Homo sapiens, HCT-116; HCT116 p53^+/+; 72 h; MTS
From the text: as §1, §2

[3] = system: HCT116 p53^-/-; experiment: Cytotoxicity MTS assay, 72 h; type: cell-based, human; conditions: Homo sapiens, HCT-116; HCT116 p53^-/-; 72 h; MTS
From the text: as §1, §2

[4] = system: U-251; experiment: Cytotoxicity MTS assay, 72 h; type: cell-based, human; conditions: Homo sapiens; U-251; 72 h; MTS
From the text: as §1, §2

[5] = system: MCF-7; experiment: Cytotoxicity MTS assay, 72 h; type: cell-based, human; conditions: Homo sapiens, MCF7; MCF-7; 72 h; MTS
From the text: as §1, §2

[6] = system: Hs683; experiment: Cytotoxicity MTS assay, 72 h; type: cell-based, human; conditions: Homo sapiens, Hs 683; Hs683; 72 h; MTS
From the text: as §1, §2

[7] = system: cancer cell lines; experiment: Cytotoxicity MTS assay, whole panel of cancer cell lines; type: cell-based; conditions: Homo sapiens, Hs 683; all the cancer lines, Hs683 an exception
From the text: as §1
The cells were seeded in 96-well plates (Nunc) at a density of 5,000 cells/well (HCT116, MCF-7, U-251, Hs683) and 4,000 cells/well (NHDF) and incubated at 37°C for 24 h. […] The optical densities of the samples were analyzed at 490 nm using a multi-plate reader (Synergy 4, Bio Tek). Results were expressed as a percentage of the control and calculated as the inhibitory concentration (IC50) values using GraphPad Prism 5. […]

- melting point: 206 to 207 °C
Structure (SMILES): Nc1cccnc1C=NNC(=S)N1CCN(c2ccc(Cl)cc2)CC1 [L^3, N’-[(3-aminopyridin-2-yl)methylidene]-4-(4-chlorophenyl)piperazine-1-carbothiohydrazide]
- IC50 [1]: > 25000 nM
- IC50 [2]: 120 ± 5 nM
- IC50 [3]: 167 ± 18 nM
- IC50 [4]: 128 ± 12 nM
- IC50 [5]: 204 ± 49 nM
- IC50 [6]: 1480 ± 335 nM
- IC50 [7]: 120 to 200 nM
